“And” between values parts separate entries of the source, which are not always exact repeats. Equal values may be shown once.

The IC50 is the concentration that gives 50% inhibition. Read a high IC50 as lower potency.

The target in this experiment is Mitogen-activated protein kinase kinase kinase kinase 1 (Homo sapiens, UniProt Q92918). Kind of experiment: HPK1-SLP76 TR-FRET ASSAY. For orientation: In TR-FRET formats the signal depends on donor and acceptor labels being close together.
Chain of Mitogen-activated protein kinase kinase kinase kinase 1 (Q92918 whole entry): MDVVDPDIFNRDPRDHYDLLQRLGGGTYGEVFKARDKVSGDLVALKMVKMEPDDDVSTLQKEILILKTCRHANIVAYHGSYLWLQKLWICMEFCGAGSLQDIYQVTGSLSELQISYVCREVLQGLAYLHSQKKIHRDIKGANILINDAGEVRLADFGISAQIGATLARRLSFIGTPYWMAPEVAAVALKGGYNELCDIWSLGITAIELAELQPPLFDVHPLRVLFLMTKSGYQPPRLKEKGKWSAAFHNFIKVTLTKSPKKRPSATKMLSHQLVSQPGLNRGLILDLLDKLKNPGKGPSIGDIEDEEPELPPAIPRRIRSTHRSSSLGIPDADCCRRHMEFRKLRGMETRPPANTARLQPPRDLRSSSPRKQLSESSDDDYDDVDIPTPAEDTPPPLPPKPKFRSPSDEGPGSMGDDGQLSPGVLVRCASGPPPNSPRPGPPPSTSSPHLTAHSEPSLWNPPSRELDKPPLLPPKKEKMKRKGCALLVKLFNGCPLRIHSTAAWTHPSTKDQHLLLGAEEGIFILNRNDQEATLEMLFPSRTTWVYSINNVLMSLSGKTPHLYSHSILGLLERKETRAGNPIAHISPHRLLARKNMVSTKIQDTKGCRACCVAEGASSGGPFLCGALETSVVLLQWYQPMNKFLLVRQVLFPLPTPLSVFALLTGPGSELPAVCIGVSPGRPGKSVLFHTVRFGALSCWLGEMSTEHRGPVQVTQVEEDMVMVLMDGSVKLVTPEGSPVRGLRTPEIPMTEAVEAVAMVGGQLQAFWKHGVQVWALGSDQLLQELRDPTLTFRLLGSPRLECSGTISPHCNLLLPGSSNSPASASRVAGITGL
Compound `COc1cc([C@@H](C)S(C)(=O)=O)ccc1Nc1ncc2c(N)c(F)c(-c3cnc4c(c3C)NCCO4)cc2n1` [WO2022098806, Compound 2-56] registered an IC50 of 0.1 nM.

The compound `COc1cc([C@H]2CCN(C)C2=O)ccc1Nc1ncc2c(N)c(F)c(-c3cnc4c(c3C)NCCO4)cc2n1` [WO2022098806, Compound 2-57] displayed an IC50 of 0.91 nM.

`COC1CC(NC(=O)c2ccc(Nc3ncc4c(N)c(F)c(-c5cnc6c(c5C)NCCO6)cc4n3)cc2)C1` (configuration not stated) [WO2022098806, Compound 2-58] showed an IC50 of 0.08 nM.

The compound `Cc1c(-c2cc3nc(Nc4cc5c(cc4F)CCN(C)C5)ncc3c(N)c2F)cnc2c1NCCO2` [WO2022098806, Compound 2-59] came in with an IC50 of 0.05 nM.

Compound `Cc1c(-c2cc3nc(Nc4ccc([C@H](C)S(C)(=O)=O)cc4)ncc3c(N)c2F)cnc2c1NCCO2` [WO2022098806, Compound 2-62] registered an IC50 of 0.06 nM.

`Cc1c(-c2cc3nc(Nc4ccc([C@@H](C)S(C)(=O)=O)cc4)ncc3c(N)c2F)cnc2c1NCCO2` [WO2022098806, Compound 2-63] registered an IC50 of 0.09 nM.

`COc1cc2c(cc1Nc1ncc3c(N)c(F)c(-c4ccccc4-c4ccnn4C)cc3n1)CN(C)CC2` [WO2022098806, Compound 2-65] gave an IC50 of 17 nM.

Compound `Cc1c(-c2cc3nc(Nc4ccc(N5CCOC5=O)cc4)ncc3c(N)c2F)cnc2c1NCCO2` [WO2022098806, Compound 2-67] yielded an IC50 of 0.05 nM. Compared with the last compound, the IC50 is about 340-fold lower.

`COc1nc(C2(C#N)CC2)ccc1Nc1ncc2c(N)c(F)c(-c3cnc4c(c3C)NCCO4)cc2n1` [WO2022098806, Compound 2-68] returned an IC50 of 14 nM.

Compound `Cc1c(-c2cc3nc(Nc4ccc5c(c4)CN(C)CC5)ncc3c(N)c2F)cnc2c1NCCO2` [WO2022098806, Compound 2-70] returned a half-maximal inhibitory concentration (IC50) of 0.05 nM.

`COc1ccccc1Nc1ncc2c(N)c(F)c(-c3cnc4c(c3C)NCCO4)cc2n1` [WO2022098806, Compound 2-71] registered an IC50 of 0.25 nM.

`COc1cc2c(cc1Nc1ncc3c(N)c(F)c(-c4cnc5c(c4C)NCCO5)cc3n1)CN(C(C)C)CC2` [WO2022098806, Compound 2-72] came in with an IC50 of 0.12 nM.

The compound `CNC(=O)c1ccc(Nc2ncc3c(N)c(F)c(-c4cnc5c(c4C)NCCO5)cc3n2)c(OC)c1` [WO2022098806, Compound 2-74] came in with an IC50 of 0.27 nM.

`COc1cc2c(cc1Nc1ncc3c(N)c(F)c(-c4cnc5c(c4C)NCCO5)cc3n1)CN(C)CC2(C)C` [WO2022098806, Compound 2-75]: the IC50 was 0.33 nM.

As to `Cc1c(-c2cc3nc(Nc4ccc5c(c4)CN(C(C)C)CC5)ncc3c(N)c2F)cnc2c1NCCO2` [WO2022098806, Compound 2-76], half-maximal inhibition (IC50) was put at 0.03 nM.

With `Cc1c(-c2cc3nc(Nc4ccc5c(c4)C4CC5CN4C)ncc3c(N)c2F)cnc2c1NCCO2` (configuration not stated) [WO2022098806, Compound 2-79], inhibition was half-maximal at 0.03 nM (IC50).

The compound `CNC(=O)C1(c2ccc(Nc3ncc4c(N)c(F)c(-c5cnc6c(c5C)NCCO6)cc4n3)cc2)CCCCC1` [WO2022098806, Compound 2-80] came in with an IC50 of 0.07 nM.

The compound `CNC(=O)C1(c2ccc(Nc3ncc4c(N)c(F)c(-c5cnc6c(c5C)NCCO6)cc4n3)cc2)CC1` [WO2022098806, Compound 2-81] returned an IC50 of 0.04 nM.

The compound `CNC(=O)C1(c2ccc(Nc3ncc4c(N)c(F)c(-c5cnc6c(c5C)NCCO6)cc4n3)cc2)CCC1` [WO2022098806, Compound 2-82] had an IC50 of 0.03 nM.

In turn, `CNC(=O)C1(c2ccc(Nc3ncc4c(N)c(F)c(-c5cnc6c(c5C)NCCO6)cc4n3)cc2)CCCC1` [WO2022098806, Compound 2-83] showed an IC50 of 0.04 nM. The IC50 values of the last two compounds are within 1.5-fold of each other.

For the compound `Cc1c(-c2cc3nc(Nc4ccc(CS(C)(=O)=O)nc4)ncc3c(N)c2F)cnc2c1NCCO2` [WO2022098806, Compound 2-84], the IC50 was 0.02 nM. Compared with the last compound, the IC50 is about 2-fold lower.

With `Cc1c(-c2cc3nc(Nc4ccc5c(c4)CN(C)[C@@H](C)C5)ncc3c(N)c2F)cnc2c1NCCO2` [WO2022098806, Compound 2-85], the IC50 was determined as 0.03 nM.

Turning to `Cc1c(-c2cc3nc(Nc4ccc5c(c4)CN(C)[C@H](C)C5)ncc3c(N)c2F)cnc2c1NCCO2` [WO2022098806, Compound 2-86], half-maximal inhibition (IC50) required 0.04 nM.

In turn, `CCS(=O)(=O)Cc1ccc(Nc2ncc3c(N)c(F)c(-c4cnc5c(c4C)NCCO5)cc3n2)c(OC)c1` [WO2022098806, Compound 2-89] yielded an IC50 of 0.01 nM.

`CNC(=O)c1ccc(Nc2ncc3c(N)c(F)c(-c4cnc5c(c4C)NCCO5)c(Cl)c3n2)c(OC)c1` [WO2022098806, Compound 2-98] returned an IC50 of 6.73 nM. This IC50 lies about 670-fold higher than the previous one.

In the case of `Cc1c(-c2c(F)c(N)c3cnc(Nc4ccc5c(c4)CN(C(C)C)CC5)nc3c2Cl)cnc2c1NCCO2` [WO2022098806, Compound 2-102], the IC50 is 0.08 nM and 0.2 nM and 0.04 nM.

On to `Cc1c(-c2c(F)c(N)c3cnc(Nc4ccc(S(C)(=O)=O)cc4)nc3c2Cl)cnc2c1NCCO2` [WO2022098806, Compound 2-103], for which inhibition was half-maximal at 0.09 nM (IC50).

Compound `COc1cc2c(cc1Nc1ncc3c(N)c(F)c(-c4cnc5c(c4C)NCCO5)c(Cl)c3n1)CN(C(C)C)CC2` [WO2022098806, Compound 2-106] came in with an IC50 of 0.07 nM.

`Cc1c(-c2c(F)c(N)c3cnc(Nc4ccc5c(c4)CN(C)CC54CC4)nc3c2Cl)cnc2c1NCCO2` [WO2022098806, Compound 2-108]: half-maximal inhibition (IC50) was put at 0.01 nM. Against the preceding compound, the IC50 is about 7-fold lower.

`Cc1c(-c2c(F)c(N)c3cnc(Nc4ccc5c(c4)CN(C)CC54CC4)nc3c2C#N)cnc2c1NCCO2` [WO2022098806, Compound 2-109] yielded an IC50 of 0.05 nM.

In the case of `Cc1c(-c2cc3nc(Nc4ccc(CS(C)(=O)=O)cc4)ncc3c(N)c2F)cnc2c1NCCO2` [WO2022098806, Compound 2-114], the IC50 is 0.05 nM and 0.07 nM and 0.04 nM.

Compound `Cc1c(-c2cc3nc(Nc4ccc5c(c4)CN(C)CCC5)ncc3c(N)c2F)cnc2c1NCCO2` [WO2022098806, Compound 2-117] registered an IC50 of 0.04 nM.

Compound `Cc1c(-c2cc3nc(Nc4ccc5c(c4)CCN(C)CC5)ncc3c(N)c2F)cnc2c1NCCO2` [WO2022098806, Compound 2-119] came in with an IC50 of 0.04 nM.

For `Cc1c(-c2cc3nc(Nc4ccc5c(c4)CNCCC5)ncc3c(N)c2F)cnc2c1NCCO2` [WO2022098806, Compound 2-120], the IC50 was found to be 0.01 nM.

In turn, `Cc1c(-c2cc3nc(Nc4ccc5c(c4)C4CCC5N4C)ncc3c(N)c2F)cnc2c1NCCO2` (configuration not stated) [WO2022098806, Compound 2-121] displayed an IC50 of 0.02 nM.

As to `CN1CCc2ccc(Nc3ncc4c(N)c(F)c(-c5cnc6c(c5Cl)NCCO6)cc4n3)cc2C1` [WO2022098806, Compound 2-124], the half-inhibitory concentration (IC50) was 0.05 nM and 0.03 nM.

Take `CCS(=O)(=O)Cc1ccc(Nc2ncc3c(N)c(F)c(-c4cnc5c(c4C)NCCO5)cc3n2)c(F)c1` [WO2022098806, Compound 2-125]: the IC50 was 0.1 nM and 0.45 nM and 0.09 nM.

Compound `Cc1c(-c2cc3nc(Nc4ccc5c(c4)CC(C)(C)N(C)C5)ncc3c(N)c2F)cnc2c1NCCO2` [WO2022098806, Compound 2-126] came in with an IC50 of 0.09 nM. This lies in the picomolar range.

Compound `Cc1c(-c2cc3nc(Nc4cccc5c4CC(C)(C)N(C)C5)ncc3c(N)c2F)cnc2c1NCCO2` [WO2022098806, Compound 2-127] gave an IC50 of 100 nM. This IC50 is about 1100-fold higher than that of the compound before.

`Cc1c(-c2cc3nc(Nc4ccc5c(c4)CN(C)C(C)(C)C5)ncc3c(N)c2F)cnc2c1NCCO2` [WO2022098806, Compound 2-128] yielded an IC50 of 0.03 nM. Compared with the last compound, the IC50 is about 3300-fold lower.

`Cc1c(-c2cc3nc(Nc4ccc5c(c4)CN(C)CC5)ncc3c(N)c2F)cnc2cc[nH]c12` [WO2022098806, Compound 2-130] showed an IC50 of 0.1 nM. Compared with the last compound, the IC50 is about 3.3-fold higher.

In turn, `Cc1c(-c2c(F)c(N)c3cnc(Nc4ccc(CS(=O)(=O)C(C)C)cc4)nc3c2Cl)cnc2c1NCCO2` [WO2022098806, Compound 2-133] came in with an IC50 of 0.4 nM.

Regarding `Cc1c(-c2c(F)c(N)c3cnc(Nc4ccc(CS(C)(=O)=O)cc4F)nc3c2Cl)cnc2c1NCCO2` [WO2022098806, Compound 2-135], the IC50 came out at 0.13 nM.

The compound `Cc1c(-c2cc3nc(Nc4ccc(CS(=O)(=O)C5CC5)cc4)ncc3c(N)c2F)cnc2c1NCCO2` [WO2022098806, Compound 2-136] displayed an IC50 of 0.1 nM.

The compound `Cc1c(-c2cc3nc(Nc4ccc5c(c4)CCS(=O)(=O)C5)ncc3c(N)c2F)cnc2c1NCCO2` [WO2022098806, Compound 2-138] registered an IC50 of 0.07 nM. The IC50 values of the last two compounds are within 1.5-fold of each other.

The compound `CN1CCc2ccc(Nc3ncc4c(N)c(F)c(-c5cncc6[nH]ccc56)cc4n3)cc2C1` [WO2022098806, Compound 2-139] came in with an IC50 of 0.04 nM.

The compound `Cc1c(-c2cc3nc(Nc4ccc5c(c4)CN(C)CC5)ncc3c(N)c2F)cnc2c1NCC(C)O2` (configuration not stated) [WO2022098806, Compound 2-141] registered an IC50 of 0.05 nM.

`Cc1c(-c2cc3nc(Nc4ccc5c(c4)CN(C(C)C)CC5)ncc3c(N)c2F)cnc2c1NCC(C)O2` (configuration not stated) [WO2022098806, Compound 2-145] came in with an IC50 of 0.05 nM.

Consider `Cc1c(-c2cc3nc(Nc4ccc([C@@H]5CCN(C)C5=O)cc4)ncc3c(N)c2F)cnc2c1NCCO2` [WO2022098806, Compound 2-146], for which the IC50 was 0.05 nM. This lies in the picomolar range.

`Cc1c(-c2cc3nc(Nc4ccc([C@H]5CCN(C)C5=O)cc4)ncc3c(N)c2F)cnc2c1NCCO2` [WO2022098806, Compound 2-147] had an IC50 of 0.08 nM.

With `Cc1c(-c2cc3nc(Nc4ccc(C5(S(C)(=O)=O)CC5)cc4)ncc3c(N)c2F)cnc2c1NCCO2` [WO2022098806, Compound 2-148], it took 0.08 nM to reach half-maximal inhibition (IC50).

Compound `Cc1c(-c2cc3nc(Nc4ccc(CS(=O)(=O)CC(F)(F)F)cc4)ncc3c(N)c2F)cnc2c1NCCO2` [WO2022098806, Compound 2-149] had an IC50 of 0.19 nM.

In turn, `Cc1c(-c2cc3nc(Nc4ccc5c(c4)CN(C)CC5(C)C)ncc3c(N)c2F)cnc2c1NCCO2` [WO2022098806, Compound 2-150] showed an IC50 of 0.06 nM.

For the compound `Cc1c(-c2cc3nc(Nc4ccc5c(c4)CN(C)CC54CC4)ncc3c(N)c2F)cnc2c1NCCO2` [WO2022098806, Compound 2-151], the IC50 is 0.05 nM and 0.27 nM.

As for `CN1Cc2cc(Nc3ncc4c(N)c(F)c(-c5cnc6c(c5Cl)NCCO6)cc4n3)ccc2C2(CC2)C1` [WO2022098806, Compound 2-152], the IC50 was 0.07 nM.

`Cc1c(N)cncc1-c1cc2nc(Nc3ccc4c(c3)CN(C)CC43CC3)ncc2c(N)c1F` [WO2022098806, Compound 2-153]: the IC50 came out at 0.05 nM.

For `Cc1c(-c2cc3nc(Nc4ccc(CS(C)(=O)=O)cc4F)ncc3c(N)c2F)cnc2c1NCCO2` [WO2022098806, Compound 2-155], the IC50 worked out at 0.06 nM.
